Assay results published in the NIST ThermoML archive (doi:10.1016/j.jct.2014.05.014).

Experiment: cn = amount concentration of the nth substance listed, in mol/dm3
Details: 101.3 kPa, Liquid; for viscosity: Falling or rolling sphere viscometry; for mass density: Vibrating tube method; for electrical conductivity: Alternating current cell with electrodes

CC(N)C(=O)[O-].[K+] (stereo not drawn) [potassium DL-alaninate] + O
Details | electrical conductivity [S/m] | mass density [kg/m3] | viscosity [mPa·s]
323.15 K, c1 = 0.495 | – | 1016.2 | –
323.15 K, c1 = 1.014 | – | 1043.4 | –
323.15 K, c1 = 1.509 | – | 1069.9 | –
323.15 K, c1 = 1.954 | – | 1094.2 | –
323.15 K, c1 = 1.999 | – | – | 1.069
323.15 K, c1 = 2.507 | – | 1121.8 | –
323.15 K, c1 = 2.522 | – | – | 1.301
323.15 K, c1 = 2.988 | – | 1145.7 | –
323.15 K, c1 = 3.048 | – | – | 1.549
323.15 K, c1 = 3.499 | – | 1170.3 | –
328.15 K, c1 = 0.495 | – | 1013.9 | –
328.15 K, c1 = 0.514 | – | – | 0.596
328.15 K, c1 = 0.526 | 5.89 | – | –
328.15 K, c1 = 1.009 | 9.68 | – | –
328.15 K, c1 = 1.014 | – | 1041 | –
328.15 K, c1 = 1.029 | – | – | 0.703
328.15 K, c1 = 1.499 | 12.2 | – | –
328.15 K, c1 = 1.509 | – | 1067.4 | –
328.15 K, c1 = 1.524 | – | – | 0.854
328.15 K, c1 = 1.954 | – | 1091.5 | –
328.15 K, c1 = 1.999 | – | – | 0.985
328.15 K, c1 = 2.018 | 13.8 | – | –
328.15 K, c1 = 2.501 | 14.6 | – | –
328.15 K, c1 = 2.507 | – | 1119 | –
328.15 K, c1 = 2.522 | – | – | 1.201
328.15 K, c1 = 2.988 | – | 1143 | –
328.15 K, c1 = 3.046 | 14.9 | – | –
328.15 K, c1 = 3.048 | – | – | 1.413
328.15 K, c1 = 3.497 | 14.7 | – | –
328.15 K, c1 = 3.499 | – | 1167.5 | –
333.15 K, c1 = 0.495 | – | 1011.5 | –
333.15 K, c1 = 0.514 | – | – | 0.547
333.15 K, c1 = 0.526 | 6.27 | – | –
333.15 K, c1 = 1.009 | 10.3 | – | –
333.15 K, c1 = 1.014 | – | 1038.5 | –
333.15 K, c1 = 1.029 | – | – | 0.649
333.15 K, c1 = 1.499 | 13 | – | –
333.15 K, c1 = 1.509 | – | 1064.9 | –
333.15 K, c1 = 1.524 | – | – | 0.799
333.15 K, c1 = 1.954 | – | 1088.8 | –
333.15 K, c1 = 1.999 | – | – | 0.902
333.15 K, c1 = 2.018 | 14.6 | – | –
333.15 K, c1 = 2.501 | 15.5 | – | –
333.15 K, c1 = 2.507 | – | 1116.3 | –
333.15 K, c1 = 2.522 | – | – | 1.104
333.15 K, c1 = 2.988 | – | 1140.2 | –
333.15 K, c1 = 3.046 | 15.8 | – | –
333.15 K, c1 = 3.048 | – | – | 1.286
333.15 K, c1 = 3.497 | 15.7 | – | –
333.15 K, c1 = 3.499 | – | 1164.6 | –
338.15 K, c1 = 0.495 | – | 1008.9 | –
338.15 K, c1 = 0.514 | – | – | 0.507
338.15 K, c1 = 0.526 | 6.64 | – | –
338.15 K, c1 = 1.009 | 10.8 | – | –
338.15 K, c1 = 1.014 | – | 1035.9 | –
338.15 K, c1 = 1.029 | – | – | 0.602
338.15 K, c1 = 1.499 | 13.8 | – | –
338.15 K, c1 = 1.509 | – | 1062.1 | –
338.15 K, c1 = 1.524 | – | – | 0.742
338.15 K, c1 = 1.954 | – | 1086.1 | –
338.15 K, c1 = 1.999 | – | – | 0.83
338.15 K, c1 = 2.018 | 15.5 | – | –
338.15 K, c1 = 2.501 | 16.4 | – | –
338.15 K, c1 = 2.507 | – | 1113.5 | –
338.15 K, c1 = 2.522 | – | – | 1.015
338.15 K, c1 = 2.988 | – | 1137.3 | –
338.15 K, c1 = 3.046 | 16.8 | – | –
338.15 K, c1 = 3.048 | – | – | 1.176
338.15 K, c1 = 3.497 | 16.7 | – | –
338.15 K, c1 = 3.499 | – | 1161.6 | –
343.15 K, c1 = 0.495 | – | 1006.3 | –
343.15 K, c1 = 0.514 | – | – | 0.475
343.15 K, c1 = 0.526 | 7.02 | – | –
343.15 K, c1 = 1.009 | 11.4 | – | –
343.15 K, c1 = 1.014 | – | 1033.1 | –
343.15 K, c1 = 1.029 | – | – | 0.563
343.15 K, c1 = 1.499 | 14.5 | – | –
343.15 K, c1 = 1.509 | – | 1059.4 | –
343.15 K, c1 = 1.524 | – | – | 0.693
343.15 K, c1 = 1.954 | – | 1083.4 | –
343.15 K, c1 = 1.999 | – | – | 0.77
343.15 K, c1 = 2.018 | 16.3 | – | –
343.15 K, c1 = 2.501 | 17.4 | – | –
343.15 K, c1 = 2.507 | – | 1110.5 | –
343.15 K, c1 = 2.522 | – | – | 0.94
343.15 K, c1 = 2.988 | – | 1134.4 | –
343.15 K, c1 = 3.046 | 17.8 | – | –
343.15 K, c1 = 3.048 | – | – | 1.087
343.15 K, c1 = 3.497 | 17.7 | – | –
343.15 K, c1 = 3.499 | – | 1158.6 | –
